Here are results for 26 molecules from ChEMBL document CHEMBL3588854, “Synthesis of 5-isoxazol-3-yl-pyrimidine nucleosides as potential antileishmanial agents” (Bioorg Med Chem Lett, 2015).

Molecules are shown by their SMILES. pIC50: −log10 of the molar value. The source made the active and inactive calls. No cut-off for these calls is given here.

One test deals with Leishmania donovani. Put plainly: Antileishmanial activity against amastigote stage of Leishmania donovani MHOM/ET/67/HU3 infected in mouse RAW264.7 cells assessed as inhibition of parasite growth after 48 hrs by SYBR green I incorporation assay. It is filed as functional, organism-based.
Settings: not given
Take `CC(=O)OC[C@H]1O[C@@H](n2cc(-c3cc(-c4ccc(Br)cc4)on3)c(=O)[nH]c2=O)C[C@@H]1OC(C)=O`: the “growth inhibition (GI)” value is “inactive”. The same measure, in the same setting: for `CC(=O)OC[C@H]1O[C@@H](n2cc(-c3cc(-c4ccccc4)on3)c(=O)[nH]c2=O)C[C@@H]1OC(C)=O` the value was “inactive”; for `CC(=O)OC[C@H]1O[C@@H](n2cc(-c3cc(CBr)on3)c(=O)[nH]c2=O)C[C@@H]1OC(C)=O`, “inactive”. As to `CC(=O)OC[C@H]1O[C@@H](n2cc(-c3cc(-c4ccccc4)on3)c(=O)[nH]c2=O)C[C@@H]1N=[N+]=[N-]`, the “growth inhibition (GI)” value is “inactive”. Still for that read-out and setting: the same measure for `CC(=O)OC[C@@H]1C=C[C@H](n2cc(-c3cc(-c4ccccc4)on3)c(=O)[nH]c2=O)O1`: “inactive”; for `CC(=O)OC[C@H]1O[C@@H](n2cc(-c3cc(-c4ccccc4)on3)c(=O)[nH]c2=O)[C@H](OC(C)=O)[C@@H]1OC(C)=O`: “inactive”.

Staying with this test, now noted: MHOM/ET/67/HU3, RAW264.7, 48 h.
With `CC(=O)OC[C@H]1O[C@@H](n2cc(-c3cc(-c4ccc(F)cc4)on3)c(=O)[nH]c2=O)C[C@@H]1N=[N+]=[N-]`, the negative logarithm of the IC50 (pIC50) (in general, the IC50 on a negative log10 scale, so that one unit is a factor of ten) is less than 4.90. On the same count and under the same terms, the same measure for `CC(=O)OC[C@H]1O[C@@H](n2cc(-c3cc(-c4ccc(C)cc4)on3)c(=O)[nH]c2=O)C[C@@H]1OC(C)=O`: 5.77; for `Nc1nc(=O)n([C@H]2C[C@H](O)[C@@H](CO)O2)cc1-c1cc(-c2ccccc2)on1`: 6.21; for `CCCCCCCCc1cc(-c2cn([C@H]3C[C@H](O)[C@@H](CO)O3)c(=O)[nH]c2=O)no1`: less than 4.90. Same read-out and setting: for `CC(=O)OC[C@H]1O[C@@H](n2cc(-c3cc(-c4ccccc4)on3)c(N)nc2=O)C[C@@H]1OC(C)=O` the value was 5.79; for `CC(=O)OC[C@H]1O[C@@H](n2cc(-c3cc(CO)on3)c(=O)[nH]c2=O)C[C@@H]1OC(C)=O`, 5.47; for `CC(=O)OC[C@H]1O[C@@H](n2cc(-c3cc(-c4ccc(F)cc4)on3)c(=O)[nH]c2=O)C[C@@H]1OC(C)=O`, 6.15. On the same count and under the same terms, the same measure for `C[C@@H]1[C@H](O)[C@@H](C)/C=C/C=C/C=C/C=C/C=C/C=C/C=C/[C@H](O[C@@H]2O[C@H](C)[C@@H](O)[C@H](N)[C@@H]2O)C[C@@H]2O[C@](O)(C[C@@H](O)C[C@@H](O)[C@H](O)CC[C@@H](O)C[C@@H](O)CC(=O)O[C@H]1C)C[C@H](O)[C@H]2C(=O)O` [AMPHOTERICIN B]: 6.51.

For the molecule `CC(=O)OC[C@H]1O[C@@H](n2cc(-c3cc(CO)on3)c(N)nc2=O)C[C@@H]1OC(C)=O`, the pIC50 is 5.50. Same read-out and setting: for `O=c1[nH]c(=O)n([C@H]2C[C@H](O)[C@@H](CO)O2)cc1-c1cc(-c2ccccc2)on1` the value was 6.12. Still for that read-out and setting: for `O=c1[nH]c(=O)n([C@H]2C[C@H](O)[C@@H](CO)O2)cc1-c1cc(CO)on1` the value was 6.14; for `Cc1ccc(-c2cc(-c3cn([C@H]4C[C@H](O)[C@@H](CO)O4)c(=O)[nH]c3=O)no2)cc1`, 6.21.

For `CCCCCCCCCCCCCCCCOP(=O)([O-])OCC[N+](C)(C)C` [MILTEFOSINE], the pIC50 was 5.24.

As for `O=c1[nH]c(=O)n([C@H]2C[C@H](O)[C@@H](CO)O2)cc1-c1cc(-c2ccc(F)cc2)on1`, the negative logarithm of the IC50 (pIC50) is 6.24. As to `CCCCCCCCc1cc(-c2cn([C@H]3C[C@H](OC(C)=O)[C@@H](COC(C)=O)O3)c(=O)[nH]c2=O)no1`, the pIC50 is 4.68. Same read-out and setting: the same measure for `[N-]=[N+]=N[C@H]1C[C@H](n2cc(-c3cc(CO)on3)c(=O)[nH]c2=O)O[C@@H]1CO`: 6.31. Consider `O=c1[nH]c(=O)n([C@@H]2O[C@H](CO)[C@@H](O)[C@H]2O)cc1-c1cc(-c2ccc(F)cc2)on1`, for which the negative logarithm of the IC50 (pIC50) is 5.83.

Turning to `CC(=O)OC[C@H]1O[C@@H](n2cc(-c3cc(CO)on3)c(=O)[nH]c2=O)C[C@@H]1N=[N+]=[N-]`, the negative-log IC50 (pIC50) is less than 4.90. On the same count and under the same terms, the same measure for `O=c1[nH]c(=O)n([C@H]2C=C[C@@H](CO)O2)cc1-c1cc(-c2ccccc2)on1`: 5.34; for `CC(=O)OC[C@H]1O[C@@H](n2cc(-c3cc(-c4ccc(F)cc4)on3)c(=O)[nH]c2=O)[C@H](OC(C)=O)[C@@H]1OC(C)=O`: 6.11.
